Source: patent US11160785B2, “Methods and compositions for improving cognitive function” (AgeneBio, Inc., priority 2013, dated 2021)
Read-outs that look alike come from different tables or passages of the source.

How the values were obtained:
aged-impaired rats (AI) = format: in vivo, rat
Experimental: FIG. 1 depicts the effects of administering levetiracetam on the spatial memory retention of ten aged-impaired rats (AI) in an eight-arm Radial Arm Maze (RAM) test. Six treatment conditions are employed: vehicle control, levetiracetam (1.25 mg/kg/day), levetiracetam (2.5 mg/kg/day), levetiracetam (5 mg/kg/day), levetiracetam (10 mg/kg/day) and levetiracetam (20 mg/kg/day). In the RAM task used, there is a one-hour delay between presentation of a subset of arms (5 arms available and 3 arms blocked) and completion of the eight-arm win-shift task (eight arms available). Rats are pre-treated 30-40 minutes before daily trials with a one-time drug/control treatment. The number of errors made by the rats during the retention phase is used as a measure of spatial memory retention. Errors are defined as instances when rats enter an arm from which food has already been retrieved in the pre-delay component of the trial or when rats re-visit an arm in the post-delay session that had already been visited. Paired t-tests are used to compare the number of errors between different doses of levetiracetam and vehicle control. […]
A Radial Arm Maze (RAM) behavioral task is one example of a cognitive test, specifically testing spacial memory (Chappell et al. Neuropharmacology 37: 481-487, 1998). The RAM apparatus consists of, e.g., eight equidistantly spaced arms. A maze arm projects from each facet of a center platform. A food well is located at the distal end of each arm. Food is used as a reward. Blocks can be positioned to prevent entry to any arm. Numerous extra maze cues surrounding the apparatus may also be provided. After habituation and training phases, spatial memory of the subjects may be tested in the RAM under control or test compound-treated conditions. As a part of the test, subjects are pretreated before trials with a vehicle control or one of a range of dosages of the test compound. At the beginning of each trial, a subset of the arms of the eight-arm maze is blocked. Subjects are allowed to obtain food on the unblocked arms to which access is permitted during this initial “information phase” of the trial. Subjects are then removed from the maze for a delay period, e.g., a 60 second delay, a 15 minute delay, a one-hour delay, a two-hour delay, a six hour delay, a 24 hour delay, or longer) between the information phase and the subsequent “retention test,” during which the barriers on the maze are removed, thus allowing access to all eight arms. […] The identity and configuration of the blocked arms vary across trials. The number of “errors” the subjects make during the retention test phase is tracked. An error occurs in the trial if the subjects entered an arm from which food had already been retrieved in the pre-delay component of the trial, or if it re-visits an arm in the post-delay session that had already been visited. A fewer number of errors would indicate better spatial memory. The number of errors made by the test subject, under various test compound treatment regimes, can then be compared for efficacy of the test compound in treating cognitive impairment associated with CNS disorders.

[1] = test system: reelin in Entorhinal Cortex (EC2); test: Reelin mRNA in situ hybridization in entorhinal cortex of aged-impaired rats; format: in vivo, rat; conditions: 10 mg/kg/day for 28 days, compared to AI-VEH, p=0.033
Experimental: In situ hybridization was carried out as described by Haberman et al., (2008). Free-floating tissue sections were washed in 0.75% glycine in 0.1M phosphate buffer two times, followed by a single wash in phosphate buffer. After that, sections were reacted in Proteinase K buffer containing 1.0 μg/ml proteinase K for 30 minutes at 37° C. Sections were then treated with acetic anhydride solution (11.3% triethanolamine, 0.25% acetic anhydride, 0.04 M acetic acid) for 10 minutes at room temperature. This was followed by two 15-minute washes in 2× sodium chloride/citrate buffer (SSC buffer; 20× concentration, 3M NaCl, 0.3M sodium citrate). Next, sections were transferred to hybridization buffer containing 20% formamide, 0.4×Denhardt's solution, 4% dextran sulfate, and 1.6×SSC) supplemented with 0.25 mg/ml tRNA, 0.33 mg/ml sheared salmon sperm DNA, 100 mM DTT, and 1×10^7 cpm/ml 35S-UTP-labeled probe for overnight reaction at 60° C. The following day, sections were washed at 60° C. in 4×SSC/0.01M DTT and 2×SSC/50% formamide. They were then incubated with RNase (20 μg/ml) at 37° C. for 30 min. […] Slides were dried overnight, exposed to a phosphoimager screen, and quantified by using ImageQuant (GE Healthcare). Digital images were acquired of entorhinal cortical sections from the same levels for all animals and the subregion of interest was outlined and quantified. […]

[2] = cited from earlier work

CC[C@@H](C(N)=O)N1CCCC1=O [levetiracetam, (2S)-2-(2-oxopyrrolidin-1-yl) butanamide]
memory performance relative to vehicle control treatment (aged-impaired rats (AI)): significantly improves memory performance | human equivalent dose (HED) of the effective rat dose (aged-impaired rats (AI); HED for a 70 kg human): 28-56 mg twice a day | human equivalent dose (HED) of the effective rat dose (aged-impaired rats (AI); body surface area conversion of 5-10 mg/kg in rats): 0.8 to 1.6 mg/kg/day | average no. of errors±standard error of the mean (SEM) (aged-impaired rats (AI); levetiracetam 5 mg/kg/day i.p. 30-40 min before trial, one-hour delay, n=10, vehicle 2.00±0.42): 0.75±0.32 | memory performance relative to vehicle control treatment (aged-impaired rats (AI); levetiracetam 10 mg/kg/day i.p., one-hour delay, paired t-test t(9)=2.37, p=0.042): significantly improves memory performance | performance of AI rats in the radial maze task (aged-impaired rats (AI); levetiracetam 20 mg/kg, FIG. 1): fails to improve the performance of AI rats | memory performance in AI rats (aged-impaired rats (AI); rat, in vivo): does not significantly improve the memory performance | reelin mRNA expression in the lateral entorhinal cortex (EC2) [1]: significantly increased the expression of reelin | plasma half-life expected in elderly ([2]; elderly, decreased renal function): 9 to 10 h | absorption ([2]; in vivo, po): rapidly and almost completely absorbed | time of peak plasma concentrations ([2]; in vivo, po): about 1 hour | plasma half-life ([2]; in vivo): approximately 7±1 hour | time to steady state ([2]; in vivo): 2 days | effect of food on bioavailability ([2]; oral): not affected by food
